Measured values reported in ChEMBL document CHEMBL1201862, “PubChem BioAssay data set” (2004).
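Results reflect a 48-hour exposure of cells in 96-well plates to compound at five concentrations. The concentration for 50% growth inhibition is given as GI50.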 Calls of active or inactive are those of the source. Rule as the data show it: active = GI50 up to about 1.1 µM and inactive = higher.

Experiments:
Test in all cases: NCI anticancer screen, dose series, 48 h
[1] = tested on: SK-MEL-28
[2] = tested on: SN12C
[3] = tested on: DU-145
[4] = tested on: SF-539
[5] = tested on: K562
[6] = tested on: RPMI-8226
[7] = tested on: OVCAR-5
[8] = tested on: PC-3
[9] = tested on: U-251
[10] = tested on: NCI-H522
[11] = tested on: MOLT-4
[12] = tested on: HCT-15
[13] = tested on: T47D
[14] = tested on: OVCAR-4
[15] = tested on: NCI-H460
[16] = tested on: LOX IMVI
[17] = tested on: HL-60
[18] = tested on: MDA-MB-435
[19] = tested on: SR
[20] = tested on: NCI-H226

Structure (SMILES) | GI50 [1] | GI50 [2] | GI50 [3] | GI50 [4] | GI50 [5] | GI50 [6] | GI50 [7] | GI50 [8] | GI50 [9] | GI50 [10] | GI50 [11] | GI50 [12] [µM] | GI50 [13] | GI50 [14] | GI50 [15] | GI50 [16] | GI50 [17] | GI50 [18] | GI50 [19] | GI50 [20]
Cc1ccc(S(=O)(=O)OC2CCN(C)CC2)cc1 | > 100 µM (inactive) | > 100 µM (inactive) | > 100 µM (inactive) | 88.7 µM (inactive) | 19.3 µM (inactive) | 23.2 µM (inactive) | > 100 µM (inactive) | > 100 µM (inactive) | > 100 µM (inactive) | 19 µM (inactive) | 18.3 µM (inactive) | > 100 | 23.1 µM (inactive) | > 100 µM (inactive) | > 100 µM (inactive) | > 100 µM (inactive) | 18 µM (inactive) | > 100 µM (inactive) | 20.5 µM (inactive) | 
O=C(O)Cc1c(O)ccc2ccccc12 | > 100 µM (inactive) | > 100 µM (inactive) | > 100 µM (inactive) | > 100 µM (inactive) | > 100 µM (inactive) | > 100 µM (inactive) | > 100 µM (inactive) | > 100 µM (inactive) | > 100 µM (inactive) | > 100 µM (inactive) | > 100 µM (inactive) | > 100 | > 100 µM (inactive) | > 100 µM (inactive) | > 100 µM (inactive) | > 100 µM (inactive) |  | > 100 µM (inactive) | > 100 µM (inactive) | > 100 µM (inactive)
Cc1ccn2c(=O)cc(-c3ccccc3)nc2c1 | > 100 µM (inactive) | 93.8 µM (inactive) | > 100 µM (inactive) | > 100 µM (inactive) | > 100 µM (inactive) | > 100 µM (inactive) | > 100 µM (inactive) | > 100 µM (inactive) | > 100 µM (inactive) | 55.2 µM (inactive) | > 100 µM (inactive) | > 100 | 49.7 µM (inactive) | > 100 µM (inactive) | > 100 µM (inactive) |  | > 100 µM (inactive) | > 10 µM (inactive) | > 100 µM (inactive) | > 100 µM (inactive)
CCOC(=O)CCC(NC(=O)Cc1ccc(Oc2nc3ccccc3nc2-c2ccccc2)cc1)C(=O)OCC (centres undefined) | > 100 µM (inactive) | > 100 µM (inactive) | > 100 µM (inactive) | 29.9 µM (inactive) | 63.2 µM (inactive) | > 100 µM (inactive) | > 100 µM (inactive) | 41.9 µM (inactive) | 75.9 µM (inactive) | 34.6 µM (inactive) | > 100 µM (inactive) | > 100 | 24.9 µM (inactive) | 56.4 µM (inactive) | > 100 µM (inactive) |  | > 100 µM (inactive) | > 100 µM (inactive) | > 100 µM (inactive) | 19.5 µM (inactive)
COC(=O)C(=O)c1c2ccccc2n2ccc3c4ccccc4[nH]c3c12 |  | > 10 µM (inactive) | > 10 µM (inactive) | 3.27 µM (inactive) | > 10 µM (inactive) | > 10 µM (inactive) | > 10 µM (inactive) | > 10 µM (inactive) | > 10 µM (inactive) | > 10 µM (inactive) | > 10 µM (inactive) | > 10 | > 10 µM (inactive) | > 10 µM (inactive) | > 10 µM (inactive) | > 10 µM (inactive) | > 10 µM (inactive) | > 10 µM (inactive) | > 10 µM (inactive) | > 10 µM (inactive)
Cn1c(=O)c2c(nc(NCCCCl)n2CC(=O)O)n(C)c1=O | > 100 µM (inactive) | > 100 µM (inactive) | > 100 µM (inactive) |  | > 100 µM (inactive) | > 100 µM (inactive) | > 100 µM (inactive) | > 100 µM (inactive) | > 100 µM (inactive) | > 100 µM (inactive) | 2.74 µM (inactive) | > 100 | > 100 µM (inactive) | > 100 µM (inactive) | > 100 µM (inactive) | > 100 µM (inactive) | > 100 µM (inactive) | > 100 µM (inactive) | < 0.01 µM (active) | > 100 µM (inactive)
C=CC1ON(C)CCc2cc(OC)c(OC)cc21 (centres undefined) | > 100 µM (inactive) | > 100 µM (inactive) | > 100 µM (inactive) | > 100 µM (inactive) | > 100 µM (inactive) | > 100 µM (inactive) | > 100 µM (inactive) | > 100 µM (inactive) | > 100 µM (inactive) | > 100 µM (inactive) | > 100 µM (inactive) | > 100 | 83.2 µM (inactive) |  | > 100 µM (inactive) | > 100 µM (inactive) | > 100 µM (inactive) | > 100 µM (inactive) | > 100 µM (inactive) | > 100 µM (inactive)
Cc1cc(C)nc(NS(=O)(=O)c2ccc(Nc3c4ccccc4nc4c(C(=O)NNCCO)cccc34)cc2)n1 | > 100 µM (inactive) | > 100 µM (inactive) | > 100 µM (inactive) |  | 31 µM (inactive) | 15.7 µM (inactive) | > 100 µM (inactive) | > 100 µM (inactive) | > 100 µM (inactive) | 39.5 µM (inactive) | 30.9 µM (inactive) | > 100 | 5.06 µM (inactive) | > 100 µM (inactive) | 15.7 µM (inactive) | 34.6 µM (inactive) | 42 µM (inactive) | 79.3 µM (inactive) | 25.4 µM (inactive) | 
CCCc1c2c3ccccc3nc-2nc2ccccn12 | > 100 µM (inactive) | 73.5 µM (inactive) | > 100 µM (inactive) | > 100 µM (inactive) | 52.6 µM (inactive) | 41.9 µM (inactive) | 25.2 µM (inactive) | 64.6 µM (inactive) | 63.7 µM (inactive) | > 100 µM (inactive) | 67.5 µM (inactive) | > 100 | > 100 µM (inactive) | 50.5 µM (inactive) | 32.8 µM (inactive) | 41.4 µM (inactive) | 35.6 µM (inactive) | 94.4 µM (inactive) | 49.1 µM (inactive) | 
CCOC(=O)/C(C#N)=C/c1coc2cc(C)cc(C)c2c1=O | > 100 µM (inactive) | > 100 µM (inactive) | > 100 µM (inactive) | > 100 µM (inactive) | > 100 µM (inactive) | > 100 µM (inactive) | > 100 µM (inactive) | > 100 µM (inactive) | > 100 µM (inactive) | > 100 µM (inactive) | > 100 µM (inactive) | > 100 | > 100 µM (inactive) |  | > 100 µM (inactive) | > 100 µM (inactive) | > 100 µM (inactive) | > 100 µM (inactive) | > 100 µM (inactive) | > 100 µM (inactive)
c1c[nH]c(-c2cccc3nsnc23)c1 | > 100 µM (inactive) | 94.2 µM (inactive) | > 100 µM (inactive) | > 100 µM (inactive) | > 100 µM (inactive) | 57.7 µM (inactive) | 31.8 µM (inactive) | 95.9 µM (inactive) | > 100 µM (inactive) | > 100 µM (inactive) | 40.7 µM (inactive) | 15.7 | 3.78 µM (inactive) | 38.8 µM (inactive) | 65.2 µM (inactive) | 63.1 µM (inactive) |  | > 100 µM (inactive) | 25.1 µM (inactive) | > 100 µM (inactive)
COC(=O)CCC(C)[C@H]1CCC2C3CC[C@@H]4CC5(CC[C@]4(C)C3C[C@H](OC(C)=O)[C@@]21C)OOC1(CCCCC1)OO5 (some centres undefined) | 27.7 µM (inactive) | > 100 µM (inactive) | 7.87 µM (inactive) | 44.7 µM (inactive) | 6.01 µM (inactive) | 1.94 µM (inactive) | 17.3 µM (inactive) | 6.55 µM (inactive) | 6.62 µM (inactive) | 6.01 µM (inactive) | 6.11 µM (inactive) | 11.9 | 2.75 µM (inactive) | 4.06 µM (inactive) | 4.69 µM (inactive) |  | 2.49 µM (inactive) | 7.35 µM (inactive) | 3.33 µM (inactive) | > 100 µM (inactive)
CC(C(N)=O)N(C)C(=O)c1cnc2ccccc2c1 (centres undefined) | > 100 µM (inactive) | > 100 µM (inactive) | > 100 µM (inactive) | > 100 µM (inactive) | 17 µM (inactive) | > 100 µM (inactive) | > 100 µM (inactive) | > 100 µM (inactive) | > 100 µM (inactive) | > 100 µM (inactive) | > 100 µM (inactive) | > 100 | > 100 µM (inactive) | > 100 µM (inactive) | > 100 µM (inactive) |  | > 100 µM (inactive) | > 100 µM (inactive) | > 100 µM (inactive) | > 100 µM (inactive)
Cc1cc(C)c2c(=O)n(CC(O)CN3CCN(CCOCCO)CC3)sc2n1 (centres undefined) | 17.2 µM (inactive) | 18.4 µM (inactive) | 30.2 µM (inactive) | 20 µM (inactive) | 37.3 µM (inactive) |  | 18.9 µM (inactive) | 18.7 µM (inactive) | 18.1 µM (inactive) | 14.6 µM (inactive) | 24.5 µM (inactive) | 42.1 | 19.1 µM (inactive) | 17.9 µM (inactive) | 20.2 µM (inactive) | 18.8 µM (inactive) | 20.5 µM (inactive) | 17.4 µM (inactive) | 25.8 µM (inactive) | > 100 µM (inactive)
O=C(CCc1cccc(O)c1)NCCc1cccc(O)c1 | > 100 µM (inactive) | > 100 µM (inactive) | > 100 µM (inactive) | > 100 µM (inactive) | > 100 µM (inactive) |  | > 100 µM (inactive) | > 100 µM (inactive) | > 100 µM (inactive) | > 100 µM (inactive) | > 100 µM (inactive) | > 100 | > 100 µM (inactive) | > 100 µM (inactive) | > 100 µM (inactive) | > 100 µM (inactive) | > 100 µM (inactive) | > 100 µM (inactive) | > 100 µM (inactive) | > 100 µM (inactive)
